Measured values reported in patent US12582641B2, “Sulfur-containing compound based on glutarimide skeleton and application thereof” (SHANGHAITECH UNIVERSITY, priority 2019, dated 2026).

Experiments:
[1] = tested on: Mantle cell lymphoma Mino; experiment: Proliferation inhibition (IC50) in lymphoma cell line Mino, cell viability assay; format: cell-based; settings: Mino cells; for IC50: 72 h, WST reagent
Text: (§1) We tested the anti-proliferation activities of the compounds of the present invention in ALCL cell line SR and Mantle cell lymphoma Mino (which overexpressed IKZF1/3, but were not sensitive to immunomodulatory drugs) through a dose-dependent manner. […] The experiment was repeated more than three times.

MM.1S cells = experiment: Proliferation inhibition (IC50) in MM.1S cells, cell viability assay; settings: Homo sapiens, MM1.S, 72 h, read-out: IC50 (nM), proliferation inhibitory activity of MM.1S cells (half inhibitory concentration)
ALCL cell line SR = experiment: Proliferation inhibition (IC50) in lymphoma cell line SR, cell viability assay; format: cell-based; settings: 72 h, SR cells, WST reagent
Text: as §1

| SMILES | IC50 (MM.1S cells) [nM] | further results |
| --- | --- | --- |
| O=C1CCC(N2Cc3c(SCc4ccc(CCNC56CC7CC(CC(C7)C5)C6)cc4)cccc3C2=O)C(=O)N1 (stereo not shown) [SIAIS287128, 3-(4-((4-(2-(adamantan-1-ylamino)ethyl)benzyl)thio)-1-oxoisoindolin-2-yl)piperidine-2,6-dione] | 0.018 ± 0.005 | IC50 ([1]; Homo sapiens, MINO): ~0.29 nM; IC50 [1]: 0.289 nM; IC50 times lower than Pomalidomide ([1]; versus pomalidomide IC50 48 nM): 165 times; IC50 (ALCL cell line SR; Homo sapiens, SR): ~0.3 nM; IC50 (ALCL cell line SR): 0.297 nM |
| O=C1CCC(N2Cc3c(SCCCCCCCNC45CC6CC(CC(C6)C4)C5)cccc3C2=O)C(=O)N1 (stereo not shown) [SIAIS1220155, 3-(4-((7-((adamantan-1-yl)amino)heptyl)thio)-1-oxoisoindolin-2-yl)piperidine-2,6-dione] | 0.02 | IC50 ([1]; Homo sapiens, MINO): 0.776 nM; IC50 (ALCL cell line SR; Homo sapiens, SR): 7.42 nM |
| O=C1CCC(N2Cc3c(SCc4ccc(CN5CCCCC5)cc4)cccc3C2=O)C(=O)N1 (stereo not shown) [SIAIS1220165, 3-(1-oxo-4-((4-(piperidin-1-ylmethyl)benzyl)thio)isoindolin-2-yl)piperidine-2,6-dione] | 0.09 | IC50 ([1]; Homo sapiens, MINO): 5.83 nM; IC50 (ALCL cell line SR; Homo sapiens, SR): 1.89 nM |
| O=C1CCC(N2Cc3c(SCc4cccc(CNC5CCCCC5)c4)cccc3C2=O)C(=O)N1 (stereo not shown) [SIAIS1227133, 3-(4-((3-((cyclohexylamino)methyl)benzyl)thio)-1-oxoisoindolin-2-yl)piperidine-2,6-dione] | 0.13 ± 0.07 | – |
| O=C1CCC(N2Cc3c(SCc4cccc(CNC56CC7CC(CC(C7)C5)C6)c4)cccc3C2=O)C(=O)N1 (stereo not shown) [SIAIS1227135, 3-(4-((3-(((adamantan-1-yl)amino)methyl)benzyl)thio)-1-oxoisoindolin-2-yl)piperidine-2,6-dione] | 0.03 ± 0.01 | – |
| O=C1CCC(N2Cc3c(SCc4cccc(CN5CCOCC5)c4)cccc3C2=O)C(=O)N1 (stereo not shown) [SIAIS1227137, 3-(4-((3-(morpholinomethyl)benzyl)thio)-1-oxoisoindolin-2-yl)piperidine-2,6-dione] | 1.04 ± 0.49 | – |
| O=C1CCC(N2Cc3c(SCc4cc(Br)c(CN5CCCCC5)cc4Br)cccc3C2=O)C(=O)N1 (stereo not shown) [SIAIS1227139, 3-(4-((2,5-dibromo-4-(piperidin-1-ylmethyl)benzyl)thio)-1-oxoisoindolin-2-yl)piperidine-2,6-dione] | 1.04 ± 0.21 | – |
| O=C1CCC(N2Cc3c(SCc4cc(Br)c(CNC5CCCCC5)cc4Br)cccc3C2=O)C(=O)N1 (stereo not shown) [SIAIS1227141, 3-(4-((2,5-dibromo-4-((cyclohexylamino)methyl)benzyl)thio)-1-oxoisoindolin-2-yl)piperidine-2,6-dione] | 4.98 ± 0.99 | – |
| O=C1CCC(N2Cc3c(SCc4cc(Br)c(CNC56CC7CC(CC(C7)C5)C6)cc4Br)cccc3C2=O)C(=O)N1 (stereo not shown) [SIAIS1227143, 3-(4-((4-(((adamantan-1-yl)amino)methyl)-2,5-dibromobenzyl)thio)-1-oxoisoindolin-2-yl)piperidine-2,6-dione] | 0.11 ± 0.17 | – |
| O=C1CCC(N2Cc3c(SCc4ccc(CCN5CCCCCCC5)cc4)cccc3C2=O)C(=O)N1 (stereo not shown) [SIAIS1227159, 3-(4-((4-(2-(azocan-1-yl)ethyl)benzyl)thio)-1-oxoisoindolin-2-yl)piperidine-2,6-dione] | 0.02 | – |
| O=C1CCC(N2Cc3c(SCc4ccc(CCN5CCC(F)(F)CC5)cc4)cccc3C2=O)C(=O)N1 (stereo not shown) [SIAIS1227161, 3-(4-((4-(2-(4,4-difluoropiperidin-1-yl)ethyl)benzyl)thio)-1-oxoisoindolin-2-yl)piperidine-2,6-dione] | 0.025 | – |
| O=C1CCC(N2Cc3c(SCc4ccc(CCN5CCC6(CC5)CC6)cc4)cccc3C2=O)C(=O)N1 (stereo not shown) [SIAIS1227163, 3-(4-((4-(2-(6-azaspiro[2.5]octan-6-yl)ethyl)benzyl)thio)-1-oxoisoindolin-2-yl)piperidine-2,6-dione] | 0.021 | – |
| CC1CC(C)CN(CCc2ccc(CSc3cccc4c3CN(C3CCC(=O)NC3=O)C4=O)cc2)C1 (stereo not shown) [SIAIS1227165, 3-(4-((4-(2-(3,5-dimethylpiperidin-1-yl)ethyl)benzyl)thio)-1-oxoisoindolin-2-yl)piperidine-2,6-dione] | 0.023 | – |

Further lines, with some results ahead:

| IC50 (MM.1S cells) [nM] | SMILES | further results |
| --- | --- | --- |
| 0.064 | O=C1CCC(N2Cc3c(SCc4ccc(CN5CCC(F)(F)CC5)cc4)cccc3C2=O)C(=O)N1 (stereo not shown) [SIAIS1227167, 3-(4-((4-((4,4-difluoropiperidin-1-yl)methyl)benzyl)thio)-1-oxoisoindolin-2-yl)piperidine-2,6-dione] | – |
| 0.12 | CN1CCN(Cc2ccc(CSc3cccc4c3CN(C3CCC(=O)NC3=O)C4=O)cc2)CC1 (stereo not shown) [SIAIS1227169, 3-(4-((4-((4-methylpiperazin-1-yl)methyl)benzyl)thio)-1-oxoisoindolin-2-yl)piperidine-2,6-dione] | – |
| 0.021 | O=C1CCC(N2Cc3c(SCc4ccc(CN5C[C@H]6CCCC[C@H]6C5)cc4)cccc3C2=O)C(=O)N1 (stereo partly drawn) [SIAIS1227171, 3-(4-((4-(((3aR,7aS)-octahydro-2H-isoindol-2-yl)methyl)benzyl)thio)-1-oxoisoindolin-2-yl)piperidine-2,6-dione] | – |
| 0.095 | C[C@@H](NCc1ccc(CSc2cccc3c2CN(C2CCC(=O)NC2=O)C3=O)cc1)C1CC1 (stereo partly drawn) [SIAIS1227173, 3-(4-((4-((((R)-1-cyclopropylethyl)amino)methyl)benzyl)thio)-1-oxoisoindolin-2-yl)piperidine-2,6-dione] | – |
| 0.073 | O=C1CCC(N2Cc3c(SCc4ccc(CN5CCCCC5)cc4F)cccc3C2=O)C(=O)N1 (stereo not shown) [SIAIS1227175, 3-(4-((2-fluoro-4-(piperidin-1-ylmethyl)benzyl)thio)-1-oxoisoindolin-2-yl)piperidine-2,6-dione] | – |
| 0.097 | O=C1CCC(N2Cc3c(SCc4ccc(CNC5CCCCC5)cc4F)cccc3C2=O)C(=O)N1 (stereo not shown) [SIAIS1227177, 3-(4-((4-((cyclohexylamino)methyl)-2-fluorobenzyl)thio)-1-oxoisoindolin-2-yl)piperidine-2,6-dione] | – |
| 0.029 | O=C1CCC(N2Cc3c(SCc4ccc(CNC56CC7CC(CC(C7)C5)C6)cc4F)cccc3C2=O)C(=O)N1 (stereo not shown) [SIAIS1227179, 3-(4-((4-(((adamantan-1-yl)amino)methyl)-2-fluorobenzyl)thio)-1-oxoisoindolin-2-yl)piperidine-2,6-dione] | – |
| 0.113 | O=C1CCC(N2Cc3c(SCc4ccc(CN5CCOCC5)cc4F)cccc3C2=O)C(=O)N1 (stereo not shown) [SIAIS1227181, 3-(4-((2-fluoro-4-(morpholinomethyl)benzyl)thio)-1-oxoisoindolin-2-yl)piperidine-2,6-dione] | – |
| 0.039 | O=C1CCC(N2Cc3c(SCc4ccc(CNC(C5CC5)C5CC5)cc4)cccc3C2=O)C(=O)N1 (stereo not shown) [SIAIS1227183, 3-(4-((4-(((dicyclopropylmethyl)amino)methyl)benzyl)thio)-1-oxoisoindolin-2-yl)piperidine-2,6-dione] | – |
| 0.051 | O=C1CCC(N2Cc3c(SCc4ccc(CNC56CC7CC(CC5C7)C6)cc4)cccc3C2=O)C(=O)N1 (stereo not shown) [SIAIS1228019, 3-(4-((4-(((hexahydro-2,5-methanopentalen-3a(1H)-yl)amino)methyl)benzyl)thio)-1-oxoisoindolin-2-yl)piperidine-2,6-dione] | – |
| 0.028 | O=C1CCC(N2Cc3c(SCCCCCCCNC45CC6CC(CC4C6)C5)cccc3C2=O)C(=O)N1 (stereo not shown) [SIAIS1228055, 3-(4-((7-((hexahydro-2,5-methanopentalen-3a(1H)-yl)amino)heptyl)thio)-1-oxoisoindolin-2-yl)piperidine-2,6-dione] | – |
| 0.037 | O=C1CCC(N2Cc3c(SCCCCCCCN[C@H]4C[C@H]5CC[C@@H]4C5)cccc3C2=O)C(=O)N1 (stereo partly drawn) [SIAIS1228059, 3-(4-((7-(((1R,2S,4S)-bicyclo[2.2.1]heptan-2-yl)amino)heptyl)thio)-1-oxoisoindolin-2-yl)piperidine-2,6-dione] | – |
| 9.4 ± 1.3 | Nc1cccc2c1C(=O)N(C1CCC(=O)NC1=O)C2=O (stereo not shown) [pomalidomide, reference compound] | IC50 ([1]; Homo sapiens, MINO): 48 nM; IC50 [1]: 48 nM |
